System: 3T3-L1 cells
Assay: Adipogenesis: differentiation of 3T3-L1 cells into adipocytes, oil red-O staining
Format: cell-based, mouse
Conditions: 10 days
Excerpt: It is reported here for the first time that capsaicin is a potent inhibitor of adipogenesis. The accepted model for the process of adipogenesis is the differentiation of mouse-derived 3T3-L1 fibroblasts into adipocytes after treatment with potent inducers such as dexamethasone, isobutyrylmethylxanthine, and insulin. In this model, the adipocytes are identified by the accumulation of lipid droplets in the cytoplasm. We tested the effect of the presence or absence of capsaicin on this process.
NIH 3T3-L1 cells were obtained from American Type Culture Collection (Manassas, Va.). NIH 3T3-L1 cells are a mouse-derived fibroblast cell line that convert into adipocytes under certain conditions. This cell system is well known in the art and is a standard model for the study of adipocyte metabolism. The cells were cultured using well known methods in complete medium (Dulbecco Modified Eagle's Medium (DMEM) (4500 mg glucose/liter) containing 10% fetal bovine serum (FBS)). When the cells were 75% confluent, they were subcultured into multi-well culture plates and allowed to grow to confluency. The differentiation of the cells into adipocytes was initiated by switching to inducing medium (complete medium containing 10 uM dexamethasone, 0.5 mM isobutyrylmethylxanthine, and 10 ug/ml insulin). 1 ug/ml and 0.5 ug/ml doses of capsaicin were added to a number of the culture wells. After 48 hours, the inducing medium was replaced with maintenance medium 1 (complete medium containing insulin (10 ug/ml) with or without capsaicin). After 24 hours, the cells were switched to maintenance medium 2 (complete medium with or without capsaicin). The cultures were followed for up to 10 days for differentiation into adipocytes. The culture medium was replaced every 2 days with a medium of similar composition. The cells were photographed every 2 days to follow their progress. On day 10, the cells were stained with oil red-O (to stain for intracellular lipid) and photographed.

Q: What does the source list for `COc1cc(CNC(=O)CCCC/C=C/C(C)C)ccc1O` [capsaicin, trans-8-methyl-N-vanillyl-6-nonenamide]?
A: differentiation into adipocytes (0.5 ug/ml and 1 ug/ml): did not become adipocytes; lipid accumulation (oil red-O stain) (0.5 ug/ml, FIG. 2): significant decrease in lipid accumulation; lipid accumulation (oil red-O stain) (1 ug/ml, FIG. 3): significant decrease in lipid accumulation

Source: patent publication US20090148546A1, “Methods and compounds fo rthe treatment of obesity and obesity-related disorders” (priority 2005, published 2009)
